According to PubChem BioAssay AID1963449 (Molecular Pharmacology Branch, DTP, NCI, 2024):

Tested on: 596521-263-R-J1-PDC complex spheroid growth
Test: Anticancer human tumor 596521-263-R-J1-PDC patient-derived soft tissue sarcoma cell line growth inhibition [Asc]
Details: for IC50: curve of first compound; for viability, T/C: stronger effect = lower value
In short: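 Stromal components (HUVEC and hMSC) are co-assembled with the cancer cells into multicellular spheroids. Drugs are then added singly or paired, at concentrations falling by half-log increments from a clinically achievable maximum, capped at 10 microM without known Cmax.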
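Further: spheroids exposed to compounds for 7 days.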

SMILES: Cc1nc(N2CCC3(CC2)COC(C)C3N)c(CO)nc1Sc1ccnc(N)c1Cl (centres undefined) + CCN1C(C(=O)NC23CCC(C(=O)O)(CC2)CC3)C(c2cccc(Cl)c2F)C2(C(=O)Nc3cc(Cl)ccc32)C12CCCCC2
- IC50 (second compound 0.00949 µM): > 3000 nM
- IC50 (second compound 0.03 µM): > 3000 nM
- IC50 (second compound 0.0949 µM): > 3000 nM
- IC50 (second compound 0.3 µM): > 3000 nM
- IC50 (second compound 0.949 µM): > 3000 nM
- IC50 (second compound 3 µM): > 3000 nM
- viability, T/C (second compound 0.00949 µM, first compound 0.00949 µM): 97.8%
- viability, T/C (second compound 0.00949 µM, first compound 0.03 µM): 92.9%
- viability, T/C (second compound 0.00949 µM, first compound 0.0949 µM): 87.7%
- viability, T/C (second compound 0.00949 µM, first compound 0.3 µM): 84.5%
- viability, T/C (second compound 0.00949 µM, first compound 0.949 µM): 78.6%
- viability, T/C (second compound 0.00949 µM, first compound 3 µM): 67.8%
- viability, T/C (second compound 0.03 µM, first compound 0.00949 µM): 92.5%
- viability, T/C (second compound 0.03 µM, first compound 0.03 µM): 99.1%
- viability, T/C (second compound 0.03 µM, first compound 0.0949 µM): 104%
- viability, T/C (second compound 0.03 µM, first compound 0.3 µM): 88.3%
- viability, T/C (second compound 0.03 µM, first compound 0.949 µM): 81.2%
- viability, T/C (second compound 0.03 µM, first compound 3 µM): 66.2%
- viability, T/C (second compound 0.0949 µM, first compound 0.00949 µM): 101%
- viability, T/C (second compound 0.0949 µM, first compound 0.03 µM): 92.9%
- viability, T/C (second compound 0.0949 µM, first compound 0.0949 µM): 87.4%
- viability, T/C (second compound 0.0949 µM, first compound 0.3 µM): 91.3%
- viability, T/C (second compound 0.0949 µM, first compound 0.949 µM): 80%
- viability, T/C (second compound 0.0949 µM, first compound 3 µM): 69.3%
- viability, T/C (second compound 0.3 µM, first compound 0.00949 µM): 101%
- viability, T/C (second compound 0.3 µM, first compound 0.03 µM): 95%
- viability, T/C (second compound 0.3 µM, first compound 0.0949 µM): 96.5%
- viability, T/C (second compound 0.3 µM, first compound 0.3 µM): 91.5%
- viability, T/C (second compound 0.3 µM, first compound 0.949 µM): 83.8%
- viability, T/C (second compound 0.3 µM, first compound 3 µM): 69.3%
- viability, T/C (second compound 0.949 µM, first compound 0.00949 µM): 90.8%
- viability, T/C (second compound 0.949 µM, first compound 0.03 µM): 101%
- viability, T/C (second compound 0.949 µM, first compound 0.0949 µM): 100%
- viability, T/C (second compound 0.949 µM, first compound 0.3 µM): 91.5%
- viability, T/C (second compound 0.949 µM, first compound 0.949 µM): 90.1%
- viability, T/C (second compound 0.949 µM, first compound 3 µM): 73.8%
- viability, T/C (second compound 3 µM, first compound 0.00949 µM): 82.6%
- viability, T/C (second compound 3 µM, first compound 0.03 µM): 81.6%
- viability, T/C (second compound 3 µM, first compound 0.0949 µM): 82.1%
- viability, T/C (second compound 3 µM, first compound 0.3 µM): 86.1%
- viability, T/C (second compound 3 µM, first compound 0.949 µM): 65.8%
- viability, T/C (second compound 3 µM, first compound 3 µM): 58.2%

SMILES: O=C(c1ccc(F)c(F)c1Nc1ccc(I)cc1F)N1CC(O)([C@@H]2CCCCN2)C1 + CCN1C(C(=O)NC23CCC(C(=O)O)(CC2)CC3)C(c2cccc(Cl)c2F)C2(C(=O)Nc3cc(Cl)ccc32)C12CCCCC2
- IC50 (second compound 0.00949 µM): 493 nM
- IC50 (second compound 0.03 µM): 466 nM
- IC50 (second compound 0.0949 µM): 418 nM
- IC50 (second compound 0.3 µM): 428 nM
- IC50 (second compound 0.949 µM): 356 nM
- IC50 (second compound 3 µM): 315 nM
- viability, T/C (second compound 0.00949 µM, first compound 0.00316 µM): 113%
- viability, T/C (second compound 0.00949 µM, first compound 0.01 µM): 98.4%
- viability, T/C (second compound 0.00949 µM, first compound 0.0316 µM): 112%
- viability, T/C (second compound 0.00949 µM, first compound 0.1 µM): 83.6%
- viability, T/C (second compound 0.00949 µM, first compound 0.316 µM): 58.4%
- viability, T/C (second compound 0.00949 µM, first compound 1 µM): 38.8%
- viability, T/C (second compound 0.03 µM, first compound 0.00316 µM): 104%
- viability, T/C (second compound 0.03 µM, first compound 0.01 µM): 100%
- viability, T/C (second compound 0.03 µM, first compound 0.0316 µM): 103%
- viability, T/C (second compound 0.03 µM, first compound 0.1 µM): 81.9%
- viability, T/C (second compound 0.03 µM, first compound 0.316 µM): 57.8%
- viability, T/C (second compound 0.03 µM, first compound 1 µM): 36.4%
- viability, T/C (second compound 0.0949 µM, first compound 0.00316 µM): 101%
- viability, T/C (second compound 0.0949 µM, first compound 0.01 µM): 96.1%
- viability, T/C (second compound 0.0949 µM, first compound 0.0316 µM): 112%
- viability, T/C (second compound 0.0949 µM, first compound 0.1 µM): 84.3%
- viability, T/C (second compound 0.0949 µM, first compound 0.316 µM): 56.4%
- viability, T/C (second compound 0.0949 µM, first compound 1 µM): 34.3%
- viability, T/C (second compound 0.3 µM, first compound 0.00316 µM): 119%
- viability, T/C (second compound 0.3 µM, first compound 0.01 µM): 94.9%
- viability, T/C (second compound 0.3 µM, first compound 0.0316 µM): 101%
- viability, T/C (second compound 0.3 µM, first compound 0.1 µM): 79.1%
- viability, T/C (second compound 0.3 µM, first compound 0.316 µM): 51.4%
- viability, T/C (second compound 0.3 µM, first compound 1 µM): 37%
- viability, T/C (second compound 0.949 µM, first compound 0.00316 µM): 97.8%
- viability, T/C (second compound 0.949 µM, first compound 0.01 µM): 99.8%
- viability, T/C (second compound 0.949 µM, first compound 0.0316 µM): 98.2%
- viability, T/C (second compound 0.949 µM, first compound 0.1 µM): 82.9%
- viability, T/C (second compound 0.949 µM, first compound 0.316 µM): 51.4%
- viability, T/C (second compound 0.949 µM, first compound 1 µM): 39.7%
- viability, T/C (second compound 3 µM, first compound 0.00316 µM): 97.1%
- viability, T/C (second compound 3 µM, first compound 0.01 µM): 84.9%
- viability, T/C (second compound 3 µM, first compound 0.0316 µM): 91.5%
- viability, T/C (second compound 3 µM, first compound 0.1 µM): 65.6%
- viability, T/C (second compound 3 µM, first compound 0.316 µM): 53.4%
- viability, T/C (second compound 3 µM, first compound 1 µM): 44.5%
